Test [1] has as its target T1, Thymidylate synthase (Homo sapiens, UniProt P04818). In words: Ability to inhibit thymidylate synthase derived from human leukemia K562 cells. Format: cell-based.
The target of test [2] is T1, Thymidylate synthase. In words: Inhibitory constant of thymidylate synthase was determined in human AML cells. Format: cell-based.
Test [3] concerns the target T1, Thymidylate synthase. In words: Inhibitory activity against human thymidylate synthase derived either from HeLa or KB cells. It is filed as cell-based.
Test [4] has as its target T2, Thymidylate synthase (Lactobacillus casei, UniProt P00469).
T2 sequence (P00469 whole entry): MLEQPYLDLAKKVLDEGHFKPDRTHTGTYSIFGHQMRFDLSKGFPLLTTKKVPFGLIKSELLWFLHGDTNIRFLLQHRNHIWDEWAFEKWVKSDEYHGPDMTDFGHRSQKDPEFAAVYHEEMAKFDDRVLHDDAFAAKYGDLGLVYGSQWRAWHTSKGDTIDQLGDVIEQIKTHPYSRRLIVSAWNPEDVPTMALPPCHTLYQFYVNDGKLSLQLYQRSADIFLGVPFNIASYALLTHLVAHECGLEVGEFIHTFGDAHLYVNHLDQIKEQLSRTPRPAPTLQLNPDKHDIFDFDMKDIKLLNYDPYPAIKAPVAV
In words: Ability to inhibit thymidylate synthase derived from Lactobacillus casei. Also noted: species or system Lacticaseibacillus casei.

Data on nine molecules can be found in ChEMBL document CHEMBL1123717, “Folate analogues as inhibitors of thymidylate synthase” (J Med Chem, 1987).

Usually IC50 stands for the concentration at which inhibition is half-maximal. By Ki is commonly meant a dissociation constant, usually derived from enzyme kinetics or from competition with a known ligand. Read a high Ki as a looser hold on the target.

T1 sequence (P04818 whole entry): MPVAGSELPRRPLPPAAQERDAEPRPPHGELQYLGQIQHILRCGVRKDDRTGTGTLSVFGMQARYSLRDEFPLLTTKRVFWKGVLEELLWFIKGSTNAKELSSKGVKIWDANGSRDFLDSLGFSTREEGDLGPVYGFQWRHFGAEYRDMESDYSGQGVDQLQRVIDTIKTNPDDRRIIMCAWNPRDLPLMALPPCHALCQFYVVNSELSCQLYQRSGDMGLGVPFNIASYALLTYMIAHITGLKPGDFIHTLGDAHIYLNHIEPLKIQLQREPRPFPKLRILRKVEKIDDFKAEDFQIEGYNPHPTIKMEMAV

`C#CCN(Cc1ccc2nc(N)nc(N)c2n1)c1ccc(C(=O)NC(CCC(=O)O)C(=O)O)cc1` (stereo unspecified): in test [1], the half-maximal inhibitory concentration (IC50) was 1.26 µM.
Still for that read-out and setting: the value for `Nc1nc(O)c2nc(CNc3ccc(C(=O)N[C@@H](CCC(=O)O)C(=O)O)cc3)ccc2n1` was 55 µM.
`CN(Cc1cnc2nc(N)[nH]c(=O)c2n1)c1ccc(C(=O)N[C@@H](CCC(=O)O)C(=O)O)cc1` [METHOPTERINE] displayed a Ki in test [2] of 1 µM.
`CN(Cc1ccc2nc(N)[nH]c(=O)c2n1)c1ccc(C(=O)N[C@@H](CCC(=O)O)C(=O)O)cc1` yielded a 50% inhibitory concentration (IC50) in test [1] of 2.5 µM.
Same read-out and setting: in the case of `CN(Cc1ccc2nc(N)[nH]c(=O)c2c1)c1ccc(C(=O)N[C@@H](CCC(=O)O)C(=O)O)cc1` it was 0.29 µM; in that of `C#CCN(Cc1ccc2nc(N)[nH]c(=O)c2n1)c1ccc(C(=O)N[C@@H](CCC(=O)O)C(=O)O)cc1`, 2.4 µM.
Take `C#CN(Cc1cnc2nc(N)nc(N)c2n1)c1ccc(C(=O)NC(CCC(=O)O)C(=O)O)cc1` (stereo unspecified): the 50% inhibitory concentration (IC50) in test [3] was determined as 0.02 µM.
Regarding `Nc1nc2ncc(CNc3ccc(C(=O)N[C@@H](CCC(=O)O)C(=O)O)cc3)nc2c(=O)[nH]1` [FOLIC ACID], in test [1], the half-inhibitory concentration (IC50) turned out to be 290 µM. This molecule came in with an inhibitory constant (Ki) in test [2] of 40 µM.
In the case of `C#CCN(Cc1cnc2nc(N)[nH]c(=O)c2n1)c1ccc(C(=O)N[C@@H](CCC(=O)O)C(=O)O)cc1`, the half-inhibitory concentration (IC50) in test [4] was determined as 3.9 µM; in test [1] it was 5.5 µM.
